Laboratory results from patent publication US20250311722A1, “IMPROVED BIOCIDE” (Purgos ApS, priority 2022, published 2025).
Read-outs that look alike come from different tables or passages of the source.

Tests used:
[1] = system: Enterococcus hierae, ATCC 10541; assay: EN 1276 quantitative suspension test, bactericidal activity; type: cell-based, Enterococcus hirae; settings: all tested contact times (5, 60 min) and concentrations (1.5%, 3%, 6%)
Method: The test was carried out according to EN 1276, 2019: Chemical disinfectants and antiseptics-Quantitative suspension test for the evaluation of bactericidal activity of chemical disinfectants and antiseptics used in food, industrial, domestic, and institutional areas-Test method and requirements. […] The growth media TSB (Tryptic Soy Broth) was separately inoculated with a culture loop of the microorganisms. The cultures were incubated at 37° C. for 24 hours. Bovine Serum Albumin with a final concentration of 3 g/L Polysorbate 80 with a concentration of 30 g/L The used method was Dilution-neutralization method. 1 mL of interfering substance was pipetted into a tube and 1 mL of the test suspension was added and mixed. […] The solution was incubated at 20° C. for 5 min. and 60 min. respectively. […] After 5 min. of neutralization time 100 μL of the mixture was added to a petri-dish containing TSA media. Another 100 μL was added to a tube containing 900 μL 0.9% NaCl and a serial dilution to 10^-5 was made. The mixtures added to the agar plates were evenly distributed with a Drigalski-spatula. The agar plates were incubated at 37° C. for 24 hours. After incubation, the number of surviving bacteria (CFU) was counted. The test was performed in 3 replicates.

[2] = 10% N-BDA in water; cited from earlier work
Vaccinia = assay: ASTM E1052 Kill Time Screen test, antiviral activity; type: cell-based
bacteria = assay: PVB dispersion treated with NBDA: microbial contamination by cATP (LuminUltra); type: cell-based; set-up: bacteria count: unit not given here
Poliovirus = type: cell-based
[3] = 0.50% NBDA, 25° C.(RT), after 1 mo
[4] = 0.50% NBDA, 25° C.(RT), after 1 wk
[5] = 0.50% NBDA, 25° C.(RT), after 3 mo
[6] = 0.50% NBDA, 25° C.(RT), after 6 mo
[7] = 0.50% NBDA, 25° C.(RT), after 1 d
[8] = 1.00% NBDA, 25° C.(RT), after 1 mo
[9] = 1.00% NBDA, 25° C.(RT), after 1 wk
[10] = 1.00% NBDA, 25° C.(RT), after 3 mo
[11] = 1.00% NBDA, 25° C.(RT), after 6 mo
[12] = 1.00% NBDA, 25° C.(RT), after 1 d

In the case of `CCCCN(CCO)CCO` [NBDA, N-butyldiethanolamine], the “log changes of CFU” value [1] is given as “lower than 5 log units”, the pH [2] is given as “around 11.1” and the “Mean log reduction after 60 seconds” value (Vaccinia; 1.0% NBDA) is given as 0.17. The “Mean log reduction after 60 seconds” value (Vaccinia; 5.0% NBDA) was 0.09, the BSI (bacteria; [3]) was 13 and the bacteria count (bacteria; [3]) was 34.8. For the same molecule, the pH (bacteria; [3]) was 9.73, the BSI (bacteria; [4]) was 17 and the bacteria count (bacteria; [4]) was 147. For the same molecule, the pH (bacteria; [4]) was 9.65, the BSI (bacteria; [5]) was 67 and the bacteria count (bacteria; [5]) was 22.7. For the same molecule, the pH (bacteria; [5]) was 9.62, the BSI (bacteria; [6]) was 50 and the bacteria count (bacteria; [6]) was 5.77. It also gave a pH (bacteria; [6]) of 9.58, a BSI (bacteria; [7]) of 4 and a bacteria count (bacteria; [7]) of 2930. For the same molecule, the pH (bacteria; [7]) was 9.77, the bacteria count (bacteria; 0.50% NBDA, 32° C., after 1 mo) was 9.47 and the bacteria count (bacteria; 0.50% NBDA, 32° C., after 1 wk) was 81. It also gave a bacteria count (bacteria; 0.50% NBDA, 32° C., after 3 mo) of 5.66, a bacteria count (bacteria; 0.50% NBDA, 32° C., after 1 d) of 215 and a bacteria count (bacteria; 0.50% NBDA, 60° C., after 1 mo) of 126. For the same molecule, the bacteria count (bacteria; 0.50% NBDA, 60° C., after 1 wk) was 276, the bacteria count (bacteria; 0.50% NBDA, 60° C., after 3 mo) was 4.2 and the bacteria count (bacteria; 0.50% NBDA, 60° C., after 1 d) was 420. The BSI (bacteria; [8]) was 10, the bacteria count (bacteria; [8]) was 39.1 and the pH (bacteria; [8]) was 9.86. For the same molecule, the BSI (bacteria; [9]) was 24, the bacteria count (bacteria; [9]) was 183 and the pH (bacteria; [9]) was 9.89. For the same molecule, the BSI (bacteria; [10]) was 60, the bacteria count (bacteria; [10]) was 3.77 and the pH (bacteria; [10]) was 9.93. It also gave a BSI (bacteria; [11]) of 83, a bacteria count (bacteria; [11]) of 1.36 and a pH (bacteria; [11]) of 9.67. The BSI (bacteria; [12]) was 6, the bacteria count (bacteria; [12]) was 1530 and the pH (bacteria; [12]) was 10.2. For the same molecule, the bacteria count (bacteria; 1.00% NBDA, 32° C., after 1 mo) was 17.9, the bacteria count (bacteria; 1.00% NBDA, 32° C., after 1 wk) was 13.5 and the bacteria count (bacteria; 1.00% NBDA, 32° C., after 3 mo) was 0.94. For the same molecule, the bacteria count (bacteria; 1.00% NBDA, 32° C., after 1 d) was 338, the bacteria count (bacteria; 1.00% NBDA, 60° C., after 1 mo) was 202 and the bacteria count (bacteria; 1.00% NBDA, 60° C., after 1 wk) was 387. For the same molecule, the bacteria count (bacteria; 1.00% NBDA, 60° C., after 3 mo) was 9.3, the bacteria count (bacteria; 1.00% NBDA, 60° C., after 1 d) was 244 and the “effectiveness as sole biocide additive” value (bacteria; concentration 0.5%, long term, RT, 32° C. and 60° C.) was “highly effective as the sole biocide additive”. For the same molecule, the “Mean log reduction after 60 seconds” value (Poliovirus; 1.0% NBDA) was 0.26 and the “Mean log reduction after 60 seconds” value (Poliovirus; 5.0% NBDA) was 0.17.
